Values quoted from earlier work, collected in patent publication US12064417B2, “Combination comprising a glucocorticoid and EDO-S101” (Purdue Pharmaceutical Products L.P., priority 2014, dated 2024).

System: multiple myeloma cell lines
Settings: in vitro, relative to bendamustin

Cn1c(CCCCCCC(=O)NO)nc2cc(N(CCCl)CCCl)ccc21 [EDO-S101]
activity greater than the activity shown by bendamustin: 35-100
